Results taken from patent US5935606A, “Reversing excitotoxic CNS damage by cellular implantation” (priority 1995, dated 1999).

Key:
NMDA receptor [1] = test: NMDA-induced thermal hyperalgesia (Hargreaves paw withdrawal latency) in rats with spinal subarachnoid transplants; type: in vivo, rat; details: for effect of antagonist pretreatment on NMDA dose-response curve, noxious thermal stimuli, compared to saline pretreatment: adrenal medullary transplanted animals, s.c. 20 min prior to NMDA (2.5, 5.0, 10.0 nmol), naloxone 2.0 mg/kg, phentolamine 10.0 mg/kg
Protocol: (§1) Experimental procedures were approved and carried out in accordance the Guidelines of the Animal Care Committee, University of Illinois at Chicago. Male Sprague-Dawley rats weighing 325-375 g (Sasco, Madison, Wis.) at the beginning of the study were used as both graft donors and recipients. Graft recipients were anesthetized (Nembutal, 40 mg/kg, i.p., supplemented as necessary) and implanted with intrathecal catheters according to methods described by Yaksh and Rudy [T. L. Yaksh and T. A. Rudy, Physiol. Behav., 17:1031-1036 (1976)]. Catheters were made of PE10 tubing with a knot sealed with dental acrylic at 7.5 cm. The catheters were threaded through a slit in the atlanto-occipital membrane to the lumbar spinal subarachnoid space, and the free ends were anchored to the skull using cyanoacrylate. Donor adrenal medullary tissue was dissected from cortical tissue and cut into small pieces (<0.5 cm^3). Adrenal medullary tissue from two adrenal glands was used as this amount was shown in previous studies to produce significant antinociception using several behavioral tests [A. T. Hama and J. Sagen, Pain, 52:223-231 (1993); J. Sagen et al., Pain, 42:69-79 (1990); H. Wang and J. Sagen, J. Neural Transplant. Plastic., 5:49-64 (1994)]. Control animals received equal volumes of striated muscle tissue from donors. Graft tissue was implanted in the spinal subarachnoid space via laminectomy at the level of the lumbar enlargement as described previously [J. Sagen et al., Brain Res., 384:189-194 (1986); J. Sagen et al., Pain, 42:69-79 (1990)]. Following surgical procedures, musculature was sutured (4-0 silk), and the skin closed with wound clips. Animals were housed individually and allowed food and water ad libitum.
Animals were allowed to recover from surgical procedures for two weeks prior to commencement of behavioral testing. Responses to noxious and innocuous stimuli were determined using three tests sequentially: the Hargreaves model for thermal hyperalgesia [K. M. Hargreaves et al., Pain, 32:223-231 (1988)], the Randall-Selitto test for mechanical hyperalgesia, and von Frey thresholds for tactile allodynia. To assess response to a noxious thermal stimulus, rats were placed on an elevated glass floor beneath an inverted clear plastic cage, and a radiant heat source beneath the glass was aimed at the plantar surface of the hindpaw. The onset of light activated a timer which was terminated by a hindpaw withdrawal response. […] The apparatus automatically terminates at a scale reading of 25 (=1000 g). […]
(§2) The first group of animals was used in order to determine the time course and dose-responsiveness to intrathecally injected NMDA. […] Baseline responses to all three tests were assessed at the beginning of each test day prior to drug injection. […]

NMDA receptor [2] = test: NMDA-induced mechanical hyperalgesia (Randall-Selitto test) in rats with spinal subarachnoid transplants; type: in vivo, rat; details: for effect of antagonist pretreatment on NMDA dose-response curve, noxious mechanical stimuli, compared to saline pretreatment: adrenal medullary transplanted animals, s.c. 20 min prior to NMDA (2.5, 5.0, 10.0 nmol), naloxone 2.0 mg/kg, phentolamine 10.0 mg/kg
Protocol: as §1, with “Graft tissue was implanted in the spinal subarachnoid space via laminectomy at the level of the lumbar enlargement as described previously [J. Sagen et al., Brain Res., 384:189-194 (1986); J. Sagen et al., Pain, 42:69-79 (1990)]. Following surgical procedures, musculature was sutured (4-0 silk), and the skin closed with wound clips. Animals were housed individually and allowed food and water ad libitum.” left out
(§3) Animals were allowed to recover from surgical procedures for two weeks prior to commencement of behavioral testing. Responses to noxious and innocuous stimuli were determined using three tests sequentially: the Hargreaves model for thermal hyperalgesia [K. M. Hargreaves et al., Pain, 32:223-231 (1988)], the Randall-Selitto test for mechanical hyperalgesia, and von Frey thresholds for tactile allodynia. […] The apparatus automatically terminates at a scale reading of 25 (=1000 g). […]
as §2

NMDA receptor [3] = test: NMDA-induced tactile allodynia (von Frey thresholds) in rats with spinal subarachnoid transplants; type: in vivo, rat; details: adrenal medullary transplanted animals; s.c. 20 min prior to NMDA (2.5, 5.0, 10.0 nmol); naloxone 2.0 mg/kg, phentolamine 10.0 mg/kg
Protocol: Experimental procedures were approved and carried out in accordance the Guidelines of the Animal Care Committee, University of Illinois at Chicago. Male Sprague-Dawley rats weighing 325-375 g (Sasco, Madison, Wis.) at the beginning of the study were used as both graft donors and recipients. Graft recipients were anesthetized (Nembutal, 40 mg/kg, i.p., supplemented as necessary) and implanted with intrathecal catheters according to methods described by Yaksh and Rudy [T. L. Yaksh and T. A. Rudy, Physiol. Behav., 17:1031-1036 (1976)]. Catheters were made of PE10 tubing with a knot sealed with dental acrylic at 7.5 cm. […]
as §3, §2

NMDA receptors [4] = test: [3H]CGP-39653 saturation binding, cortical membranes; details: normal rat cortex; one-site binding
Protocol: (§4) Changes in NMDA receptor levels were determined at three weeks following nerve injury (one week following transplantation), as a marked distinction in responses to sensory stimuli between adrenal medullary and control transplanted animals can be made at this time point. […] [^3 H]CGP-39653 (D,L-(E)-2-amino-4-propyl-5-phosphono-3-pentenoate), a selective high-affinity competitive antagonist at NMDA receptors, was used to label the binding sites. In preliminary experiments, binding characteristics of this ligand were determined in the rat spinal cord. Saturation assays were performed on whole spinal cord tissue, and the results compared to those obtained in cortical membranes. NMDA binding sites were analyzed using previously described procedures with slight modification [M. A. Sills et al., Eur. J. Pharmacol., 192:19-24 (1991)]. Animals were decapitated and the spinal cords were rapidly extruded with saline pressure. […] This volume of tissue corresponded to approximately 110 μg of protein as determined using the Bradford method (BioRad, Richmond, Calif.). […] Nonspecific binding was determined in parallel tubes containing 100 mM L-glutamiate. […] Radioactivity was counted with a Beckman 3270 scintillation counter at 48-52% efficiency. Estimates of binding parameters were determined using the program LIGAND [P. J. Munson and D. Rodbard, Anal. Biochem., 197:220-239 (1980)].

NMDA receptors [5] = test: [3H]CGP-39653 saturation binding, spinal cord membranes; details: normal rat whole spinal cord; one-site binding
Protocol: as §4

Compound | effect of antagonist pretreatment on NMDA dose-response curve, noxious thermal stimuli, compared to saline pretreatment (NMDA receptor [1]) | effect of antagonist pretreatment on NMDA dose-response curve, noxious mechanical stimuli, compared to saline pretreatment (NMDA receptor [2]) | effect of antagonist pretreatment on NMDA dose-response curve, innocuous tactile stimuli, compared to saline pretreatment (NMDA receptor [3]) | also measured
Cc1ccc(N(CC2=NCCN2)c2cccc(O)c2)cc1 [phentolamine] | significantly shifted the dose-response curves downward | significantly shifted the dose-response curves downward | significantly shifted the dose-response curves downward | –
CCC/C(=C\C(N)C(=O)O)CP(=O)(O)O (racemic) [[^3 H]CGP-39653, D,L-(E)-2-amino-4-propyl-5-phosphono-3-pentenoate] | – | – | – | Kd (NMDA receptors [4]): 15.4 nM; Kd (NMDA receptors [5]): 12.9 ± 1.8 nM
C=CCN1CC[C@]23c4c5ccc(O)c4O[C@H]2C(=O)CC[C@@]3(O)[C@H]1C5 [naloxone] | no effect | no effect | no effect | –
CN[C@H](CC(=O)O)C(=O)O [NMDA, N-methyl-D-aspartate] | – | – | – | time to significant thermal hyperalgesia in control animals (NMDA receptor [1]; 5 nmol NMDA i.t., control transplanted animals, P<0.05): ≤ 5 min; time of peak effect, thermal hyperalgesia (NMDA receptor [1]; intrathecally administered NMDA, all cases): 30 min; time of peak effect, mechanical hyperalgesia (NMDA receptor [2]; intrathecal NMDA): 30 min
